From patent publication US11274118B2 (priority 2012, dated 2022) come the findings set out here.

In data set [1] the test system is Primary cortical cells. The data set can be described thus: Reduction of neuronal cell death after a glutamate challenge (MTT / LDH release). The class given is cell-based. The conditions noted are these: for inhibition at 5 µM: 24 h, read-out: reduction in cell death at a 5 μM dose; for dose at maximum efficacy: glutamate challenge, primary cortical cells; for Emax: read-out: maximum efficacy, reduction in cell death.

Data set [2] in a line: physchem. The conditions noted are these: kinetic from dmso stock.

For `C/C(=N\OC(=O)[C@@H]1CCCN1)[C@H]1CC[C@H]2[C@@H]3CCC4=CC(=O)CC[C@]4(C)[C@H]3CC[C@]12C.Cl` [Compound 8, (8S,9S,10R,13S,14S,17S)-10,13-Dimethyl-17-((E)-1-((S)-pyrrolidine-2-carbonyloxyimino)ethyl)-6,7,8,9,10,11,12,13,14,15,16,17-dodecahydro-1H-cyclopenta[a]phenanthren-3(2H)-one Hydrochloride], in data set [1], the inhibition at 5 µM stood at 21%, the “dose at maximum efficacy” value is 10 µM and the Emax was 33%. This molecule gave a solubility at 90 min in data set [2] (pH 4, aqueous buffer) of 395 µM. The solubility at 90 min in data set [2] (pH 7, aqueous buffer) is 34 µM.
With `C/C(=N\OC(=O)c1cccnc1)[C@H]1CC[C@H]2[C@@H]3CCC4=CC(=O)CC[C@]4(C)[C@H]3CC[C@]12C` [Compound 14], in data set [1], the inhibition at 5 µM stood at 20%, the “dose at maximum efficacy” value came to 5 µM and the Emax came to 20%. In data set [2] (pH 4, aqueous buffer), this molecule gave a solubility at 90 min below 35 µM. Further, the solubility at 90 min in data set [2] (pH 7, aqueous buffer) is below 35 µM.
On to `C/C(=N\OC(=O)c1ccc[n+](C)c1)[C@H]1CC[C@H]2[C@@H]3CCC4=CC(=O)CC[C@]4(C)[C@H]3CC[C@]12C.[I-]` [Compound 15, 3-(((E)-1-((8S,9S,10R,13S,14S,17S)-10,13-Dimethyl-3-oxo-2,3,6,7,8,9,10,11,12,13,14,15,16,17-tetradecahydro-1H-cyclopenta[a]phenanthren-17-yl)ethylideneaminooxy)carbonyl)-1-methylpyridinium iodide], for which, in data set [1], the inhibition at 5 µM turned out to be 0%, the “dose at maximum efficacy” value was found to be 1 µM and the Emax was 14%. The same molecule displayed a solubility at 90 min in data set [2] (pH 4, aqueous buffer) of 349 µM. In data set [2] (pH 7, aqueous buffer), this molecule gave a solubility at 90 min of 212 µM.
For `C/C(=N\OC(=O)C1CCNCC1)[C@H]1CC[C@H]2[C@@H]3CCC4=CC(=O)CC[C@]4(C)[C@H]3CC[C@]12C.Cl` [Compound 18, (8S,9S,10R,13S,14S,17S)-10,13-Dimethyl-17-((E)-1-(piperidine-4-carbonyloxyimino)ethyl)-6,7,8,9,10,11,12,13,14,15,16,17-dodecahydro-1H-cyclopenta[a]phenanthren-3(2H)-one hydrochloride], in that order: 4%, 10 µM, 24%, 247 µM and 247 µM.
In the case of `C/C(=N\OC(=O)C1CC[N+](C)(C)CC1)[C@H]1CC[C@H]2[C@@H]3CCC4=CC(=O)CC[C@]4(C)[C@H]3CC[C@]12C.[I-]` [Compound 20, (8S,9S,10R,13S,14S,17S)-10,13-Dimethyl-17-((E)-1-(1,1-dimethylpiperidine-4-carbonyloxyimino)ethyl)-6,7,8,9,10,11,12,13,14,15,16,17-dodecahydro-1H-cyclopenta[a]phenanthren-3(2H)-one iodide], in data set [1], the inhibition at 5 µM came to 0%, the “dose at maximum efficacy” value turned out to be 5 µM and the Emax turned out to be 0%. The molecule also showed a solubility at 90 min in data set [2] (pH 4, aqueous buffer) above 500 µM. The molecule further showed a solubility at 90 min in data set [2] (pH 7, aqueous buffer) above 500 µM.
`C/C(=N\OC(=O)[C@H]1CCCNC1)[C@H]1CC[C@H]2[C@@H]3CCC4=CC(=O)CC[C@]4(C)[C@H]3CC[C@]12C.Cl` [Compound 22, (8S,9S,10R,13S,14S,17S)-10,13-Dimethyl-17-((E)-1-((S)-piperidine-3-carbonyloxyimino)ethyl)-6,7,8,9,10,11,12,13,14,15,16,17-dodecahydro-1H-cyclopenta[a]phenanthren-3(2H)-one hydrochloride]: the solubility at 90 min was determined as 314 µM in data set [2] (pH 4, aqueous buffer) and 314 µM in data set [2] (pH 7, aqueous buffer).
